Experimental data as given in patent publication US11542316B2, “S-Arrestin peptides and therapeutic uses thereof” (APITOPE INTERNATIONAL NV, priority 2017, dated 2023).
Ends that are not written are not given here.

Assays:
[1] = test system: SAg-specific hybridoma cells / T cell line with VAVY APC; assay: Antigen Processing Independent Presentation System (APIPS) assay, fresh or fixed VAVY APC; type: cell-based, DR3 mice; settings: DR3 hybridoma clone (IL-2, 48 h) or T cell line (IFN-γ, 24 h)
Protocol: (§1) FIG. 2: identification of apitopes within HIP-115. (A) DR3 mice were immunized with SAg and hybridomas were generated. 5×10^4 SAg-specific hybridoma cells were cultured with 5×10^4 fresh or fixed commercial APC (VAVY) cells. T cell proliferation was measured by IL-2 ELISA on supernatants collected after 48 h. The graph represents the mean of duplicate measurements±SEM. (B) DR3 mice were immunized with HIP-115 and a T cell line was established. Ten days after immunization the LN and spleens were harvested and cultured with different concentrations of peptide (0.1-1-2.5 and 5 μg/ml); 2×10^6 cells/ml APC+1×10^6 cells/ml CD4 T cells per well. At day 7 the cells were re-stimulated with the same concentrations of peptide. On day 14 an APIPS test was done using commercial APC (VAVY). After 24 h, antigen-induced T cell activation was measured by IFN-γ ELISA and shown as IFN-γ concentration (pg/ml). The graph represents the mean of duplicate measurements±SEM. LN, lymph nodes; APC, Antigen presenting cell; APIPS, Antigen Processing Independent Presentation System.
as §1, with “3:” for “2:”, “HIP-241125.” for “HIP-115.”, “HIP-241125+HIP-24DG” for “HIP-115”
(§2) FIG. 5: Identification of apitopes within HIP-17GN. DR3 mice were immunized with HIP-17GN and a T cell line was established. Ten days after immunization the LN and spleens were harvested and cultured with different concentrations of peptide (0.1-1-2.5 and 5 μg/ml); 2×10^6 cells/ml APC+1×10^6 cells/ml CD4 T cells per well. At day 7 the cells were re-stimulated with the same concentrations of peptide. On day 14 an APIPS test was done using commercial APC (VAVY). After 24 h, antigen-induced T cell activation was measured by IFN-γ ELISA and shown as OD values. The graph represents the mean of triplicate measurements±SEM. LN, lymph nodes; APC, Antigen presenting cell; APIPS, Antigen Processing Independent Presentation System.
as §2, with “6:” for “5:”, “HIP-12AK.” for “HIP-17GN.”, “HIP-12AK” for “HIP-17GN”, “IFN-γ concentration (pg/ml).” for “OD values.”, “duplicate” for “triplicate”
Antigen-specific clones or TCL were tested for their reactivity to the peptides, presented by fixed or not fixed (fresh) cells (VAVY or MGAR) (=APCs). 5×10^4 cells from the individual clones were cultured with 10 μg/ml peptide and 5×10^4 fixed or fresh APCs. […]

[2] = test system: LN cells and splenocytes upon SAg or peptide restimulation; assay: Ex vivo tolerization experiment, DR3tg mice; type: in vivo; settings: DR3 mice, IFN-γ; for tolerization against SAg: escalating dose regime s.c.
Protocol: FIG. 7: Ex vivo tolerisation protocol. Mice are injected subcutaneously in the flank with 0.1 μg/ml, 1 μg/ml and 10 μg/ml peptide on days −15, −13 and −11, followed by 3 injections of 100 μg/ml on days −8, −6 and −4 (escalating dose regime). On day 0, mice are immunized subcutaneously at the base of the tail with SAg/CFA or peptide/CFA. Mice are sacrificed 10 days after immunization to measure proliferation of LN cells and splenocytes upon SAg or peptide restimulation. LN, lymph nodes.
FIG. 8: Ex vivo tolerance induction by HIP-115NE3-KKK apitope. DR3 mice are injected subcutaneously in the flank with 0.1 μg/ml, 1 μg/ml and 10 μg/ml HIP-115NE3-KKK on days −15, −13 and −11, followed by 3 injections of 100 μg/ml on days −8, −6 and −4 (escalating dose regime). On day 0, mice are immunized subcutaneously at the base of the tail with HIP-115/CFA. Mice are sacrificed 10 days after immunization to measure proliferation of LN cells and splenocytes upon SAg or peptide restimulation. Data represent mean±SEM of the concentration or OD values for the PBS-treated mice (black lines) and peptide-treated mice (color lines). Two-way ANOVA was used to measure overall treatment effects on T cell activation and p-values are written in the graphs. Bonferonni post-hoc testing was used and significant differences are indicated in the graphs (* p<0.05; **** p<0.0001). LN, lymph nodes. (A) Tolerisation against SAg in LN. IFN-γ production expressed as IFN-γ concentration (pg/ml). (B) Tolerisation against SAg in spleen. IFN-γ production expressed as IFN-γ concentration (pg/ml). (C) Tolerisation against HIP-115 and HIP-115NE3 peptides in LN. IFN-γ production expressed as OD values. (D) Tolerisation against HIP-115 and HIP-115NE3 peptides in spleen. IFN-γ production expressed as OD values.
FIG. 9: Ex vivo tolerance induction by HIP-11B apitope. DR3 mice are injected subcutaneously in the flank with 0.1 μg/ml, 1 μg/ml and 10 μg/ml HIP-11B on days −15, −13 and −11, followed by 3 injections of 100 μg/ml on days −8, −6 and −4 (escalating dose regime). On day 0, mice are immunized subcutaneously at the base of the tail with HIP-11B/CFA. Mice are sacrificed 10 days after immunization to measure proliferation of LN cells and splenocytes upon SAg or peptide restimulation. Data represent mean±SEM of the concentration values for the PBS-treated mice (black lines) and peptide-treated mice (color lines). IFN-γ production expressed as IFN-γ concentration (pg/ml). Two-way ANOVA was used to measure overall treatment effects on T cell activation and p-values are written in the graphs. Bonferonni post-hoc testing was used and significant differences are indicated in the graphs (* p<0.05; **** p<0.0001). LN, lymph nodes. (A) Tolerisation against SAg in LN. (B) Tolerisation against SAg in spleen. (C) Tolerisation against HIP-11B peptide in LN. (D) Tolerisation against HIP-11B peptide in spleen.
FIG. 10: Ex vivo tolerance induction by HIP-24DG apitope. DR3 mice are injected subcutaneously in the flank with 0.1 μg/ml, 1 μg/ml and 10 μg/ml HIP-24DG on days −15, −13 and −11, followed by 3 injections of 100 μg/ml on days −8, −6 and −4 (escalating dose regime). On day 0, mice are immunized subcutaneously at the base of the tail with HIP-24DG+HIP-24HM/CFA. Mice are sacrificed 10 days after immunization to measure proliferation of LN cells and splenocytes upon SAg or peptide restimulation. Data represent mean±SEM of the OD values for the PBS-treated mice (black lines) and peptide-treated mice (color lines). IFN-γ production expressed as OD values. LN, lymph nodes. Two-way ANOVA was used to measure overall treatment effects on T cell activation and p-values are written in the graphs. Bonferonni post-hoc testing was used and significant differences are indicated in the graphs (* p<0.05; ** p<0.01; *** p<0.001: **** p<0.0001). LN, lymph nodes. (A) Tolerisation against SAg in LN. (B) Tolerisation against HIP-24DG in LN. (C) Tolerisation against HIP-24HM2 peptide in LN. […]

Solubility of peptides = type: physicochemical
Protocol: The solubility of potential apitopes from S—Ag are determined by visual observations and turbidity measurement by UV spectrophotometry at 280 nm. The solubility of the peptides can be modified by adding amino acids ‘GKK’ or ‘KKK’ (or similar) on both the C- and N-terminus of the sequence. Modifications that may be suitable are described in WO2014/072958 (which is hereby incorporated by reference).
For some of these peptides, the parental peptides were insoluble, and solubility is a critical parameter for them to work as a tolerogenic peptide. Several end-terminal modifications can be used and as example used here they were improved by addition of 3 lysines before and after the original peptide sequence (labelled as ‘-KKK’ versions).

| Substance | behaves as apitope (response to peptide presented by fresh or fixed APC) [1] | further results |
| --- | --- | --- |
| HVIFKKISRDKSVTIYLGN-NH2 [HIP-115NE, HVIFKKISRDKSVTIYLGN] | behave as apitopes |  |
| LTFRRDLYFSRVQVY-NH2 [HIP-17J, LTFRRDLYFSRVQVY] | behave as apitopes |  |
| KKKVLGILVSYQIKVKLTKKK-NH2 [HIP-12E-KKK] | behave as apitopes |  |
| VIGLTFRRDLYFSRVQVYPPVG-NH2 [HIP-17GN] | behave as apitopes |  |
| LTLLPLLANNRERRGIALDG-NH2 [HIP-24HM] | behave as apitopes |  |
| ERRGIALDGKIKH-NH2 [HIP-11AC1, ERRGIALDGKIKH] | behave as apitopes |  |
| KKKVIGLTFRRDLYFSRVQVYPPVGKKK-NH2 [HIP-17GN-KKK] | behave as apitopes | tolerization against SAg ([2]; spleen): tolerization induced |
| PLLANNRERRGI-NH2 [HIP-24HM2, PLLANNRERRGI] | behave as apitopes | solubility (Solubility of peptides): soluble |
| LTLLPLLANNRERRGIALDGKIKHEDTNLASSTIIKEG-NH2 [HIP-241125] | behave as apitopes |  |
| HIP-17K1-KKK: '-KKK' version (3 lysines before and after the sequence) of HIP-17K1; its sequence is not printed (KKKTFRRDLYFSRVQKKK) | behave as apitopes |  |
| NRERRGIALDGKIKHED-NH2 [HIP-11AC, NRERRGIALDGKIKHED] | behave as apitopes |  |
| FKKISRDKSVTIY-NH2 [HIP-115NE2, FKKISRDKSVTIY] | behave as apitopes |  |
| RERRGIALDGKIKHE-NH2 [HIP-11B, RERRGIALDGKIKHE] | behave as apitopes | tolerization against the peptide itself / peptides of the same region ([2]; LN): tolerization induced; tolerization against SAg ([2]; LN): tolerization induced; tolerization against the peptide itself ([2]; spleen): tolerization induced; tolerization against SAg ([2]; spleen): tolerization induced |
| KKISRDKSVTI-NH2 [HIP-115NE1, KKISRDKSVTI] | behave as apitopes |  |
| GILVSYQIKVK-NH2 [HIP-12G1, GILVSYQIKVK] | behave as apitopes |  |
